{
  "source": "patent US7022319B1",
  "about": "“Vectors carrying therapeutic genes encoding antimicrobial peptides for gene therapy” (GSF - Forschungszentrum fuer Umwelt und Gesundheit GmbH, priority 1995, dated 2006)",
  "key": {"[1]": {"tested_on": "mammalian cells", "conditions": "cited from earlier work"}, "[2]": {"tested_on": "variety of tumour cell lines", "conditions": "cited from earlier work"}, "[3]": {"tested_on": "bacteria", "conditions": "cited from earlier work"}, "[4]": {"tested_on": "human bladder carcinoma derived cell line, EJ", "assay": "Tumorigenicity in nude mice of EJ cell clones carrying melittin or cecropin expression constructs", "type": "in vivo", "conditions": "EJ cell clones carrying the gene, injected into nude mice; FIGS. 9A-9G and 10A-10F", "source_text": "EJ cells were transfected with p125.CercA and the clones expressing neomycin resistance were isolated. Six clones were isolated: Cecropin A1.4, Cecropin A1.7, Cecropin A1.8, Cecropin A10.3, Cecropin A10.4, and Cecropin A10.8.\nSimilarly Ej cells were transfected with pBAGpMel and pBagppMel and the clones expressing neomycin resistance were isolated. Three clones containing the premelittin gene were isolated: Pre Melittin 1, Pre Melittin 4, and Pre Melittin 6. Two clones containing prepromelittin were isolated: Pre Pro Melittin 1, and Pre Pro Melittin 5.\nThe human bladder carcinoma derived cell line, EJ, gives tumours upon injection into immuno compromised nude mice which grow progressively larger (FIGS. 9A–9G). The stable clones of Ej cells carrying the melittin or cecropin expression constructs obtained as described above were tested for their tumorigenicity in nude ice."}, "[5]": {"tested_on": "MMTV LTR", "assay": "MMTV LTR-luciferase reporter supertransfected into cells carrying PreProCecropin or PreProMelittin", "type": "cell-based, Mouse Mammary Tumour Virus", "conditions": "two different MMTV LTRs; gene under control of an MLV promoter; FIGS. 13A-13B", "source_text": "A similar experiment to that of FIGS. 11 and 12 can be seen in FIGS. 13A–13B whereby two different MMTV LTR's controlling the expression of a luciferase reporter gene (Wintersberger et al., Proc. Natl. Acad. Sci. USA, 92:2745–2749) were separately supertransfected into cells carrying either PreProCecropin or PreProMelittin under control of an MLV promoter."}, "[6]": {"tested_on": "HIV LTR", "assay": "HIV LTR-luciferase reporter (HIV-luc) supertransfected into EJ derived cell clones, with or without Tat", "type": "cell-based", "conditions": "in the presence of Tat, FIGS. 11 and 12", "source_text": "EJ derived cell clones carrying the melittin or cecropin expression vector or the parental. BAG vector, not carrying a therapeutic gene, were supertransfected with an indicator construct carrying the HIV LTR (and thus the HIV promoter) linked to a firefly luciferase reporter gene (HIV-luc) in the absence or presence of a separate construct expressing Tat. In the absence of Tat there was little luciferase activity detectable from the HIV-luc construct in all cell clones as expected since the HIV promoter requires Tat for its activity. […] Thus the production of HIV from infected cells will be inhibited by the antimicrobial peptide gene carrying therapeutic-retroviral vector. This effect is expected to lead to a lack of virus production from HIV infected cells."}, "[7]": {"tested_on": "HIV", "conditions": "purified peptide given to cells in culture; cited from earlier work"}, "[8]": {"tested_on": "cancer", "conditions": "purified peptide given to cells in culture; cited from earlier work"}},
  "data": [
    {"compound": "Cecropin B", "values": [
      {"measurement": "ill effects for mammalian cells", "setting": "[1]", "result": "without any apparent ill effects"},
      {"measurement": "anticancer activity against tumour cell lines", "setting": "[2]", "result": "anticancer activity"},
      {"measurement": "antibacterial activity", "setting": "[3]", "result": "specific antibacterial activity"}
    ]},
    {"compound": "Cecropin A", "values": [
      {"measurement": "ill effects for mammalian cells", "setting": "[1]", "result": "without any apparent ill effects"},
      {"measurement": "antibacterial activity", "setting": "[3]", "result": "specific antibacterial activity"}
    ]},
    {"compound": "cecropin", "values": [
      {"measurement": "rate of tumour growth in mice", "setting": "[4]", "result": "reduced rate of tumour growth"},
      {"measurement": "effect on expression from MMTV LTR luciferase reporter", "setting": "[5]", "result": "downregulatory effect"},
      {"measurement": "luciferase expression from HIV-luc", "setting": "[6]", "result": "little luciferase expression"}
    ]},
    {"compound": "CC[C@H](C)[C@H](NC(=O)CN)C(=O)NCC(=O)N[C@@H](C)C(=O)N[C@H](C(=O)N[C@@H](CC(C)C)C(=O)N[C@@H](CCCCN)C(=O)N[C@H](C(=O)N[C@@H](CC(C)C)C(=O)N[C@H](C(=O)N[C@H](C(=O)NCC(=O)N[C@@H](CC(C)C)C(=O)N1CCC[C@H]1C(=O)N[C@@H](C)C(=O)N[C@@H](CC(C)C)C(=O)N[C@H](C(=O)N[C@@H](CO)C(=O)N[C@@H](Cc1c[nH]c2ccccc12)C(=O)N[C@H](C(=O)N[C@@H](CCCCN)C(=O)N[C@@H](CCCNC(=N)N)C(=O)N[C@@H](CCCCN)C(=O)N[C@@H](CCCNC(=N)N)C(=O)N[C@@H](CCC(N)=O)C(=O)N[C@@H](CCC(N)=O)C(N)=O)[C@@H](C)CC)[C@@H](C)CC)[C@@H](C)O)[C@@H](C)O)C(C)C)C(C)C", "note": "[melittin]", "values": [
      {"measurement": "anti-HIV activity", "setting": "[7]", "result": "anti-HIV activity"},
      {"measurement": "anti-cancer activity", "setting": "[8]", "result": "selective anti-cancer"}
    ]}
  ]
}
